# According to patent publication US20240342330A1, “METHOD FOR THE PREPARATION OF SURFACES, PARTICULARLY OF CARDIAC PROSTHESIS” (BIOCOMPATIBILITY INNOVATION S.R.L., priority 2021, published 2024):
# Key:
# Experiment in all cases: Bactericidal activity suspension assay
# Assay type in all cases: cell-based
# Conditions in all cases: 24 hours incubation
# [1] = system: Streptococcus viridans ATCC 6249
# [2] = system: Aspergillus brasiliensis ATCC 16404
# [3] = system: Candida albicans ATCC 10231
# [4] = system: Listeria monocytogenes ATCC 19111
# [5] = system: Staphylococcus aureus ATCC 6538
# [6] = system: Mycobacterium chelonae ATCC 35752
# [7] = system: Salmonella enterica typhimurium ATCC 14028
# [8] = system: Enterococcus faecalis ATCC 29212
# [9] = system: Pseudomonas aeruginosa ATCC 9027
structure (smiles),measurement,setting,value
"CCO [ETHANOL, ethanol]",BACTERICIDAL ACTIVITY %,[1],90%
same,BACTERICIDAL ACTIVITY %,[2],90%
same,BACTERICIDAL ACTIVITY %,[3],99.9%
same,BACTERICIDAL ACTIVITY %,[4],0%
same,BACTERICIDAL ACTIVITY %,[5],99%
same,BACTERICIDAL ACTIVITY %,[6],99%
same,BACTERICIDAL ACTIVITY %,[7],90%
same,BACTERICIDAL ACTIVITY %,[8],0%
same,BACTERICIDAL ACTIVITY %,[9],99.99%
